Measurements: patent US12168013B2, “Antiviral prodrugs and nanoformulations thereof” (Board of Regents of the University of Nebraska, priority 2018, dated 2024)
Values after ≈ are worked out from the molar mass of the structure shown. Values joined by “and” are separate entries in the source; they are usually repeats but may differ in a detail not shown here. Equal values may be shown once.

Columns and labels:
1-octanol solubility = details: organic solvent or mixture
Aqueous solubility = assay type: physicochemical; details: optima water, room temperature; for solubility at 24 h: thermodynamic from solid; for aqueous solubility: 24 hours
Experimental: The aqueous solubility of CAB, MCAB, M2CAB and M3CAB in optima water was determined by adding the excess drug or prodrug powder in 1 mL water to make the saturated aqueous solution. The mixture was stirred for 24 hours at room temperature. Further, the solution was centrifuged at 14000 rpm for 10 minutes to pellet the undissolved powder. The supernatant was collected, lyophilized and dissolved in methanol for the drug content analysis by UPLC UV/Vis.

HIV-1ADA = experiment: Half-maximum effective concentration (EC50) assay, HIV-1 RT activity in MDM; assay type: cell-based; details: HIV-1ADA MOI 0.1, 10 days
Experimental: MDMs were plated in clear flat-bottom 24-well plates at a density of 0.8×10^6 cells/well. […] Following treatment, cells were washed with PBS and cultured in fresh culture medium with half-media replacement every other day. At 1, 5, 10, 15, 20, 25 and 30 days after the treatment, the cells were infected with HIV-1ADA (a macrophage tropic viral strain) at a multiplicity of infection (MOI) of 0.1 infectious particles per cell for 16 hours. Following infection period, MDM were washed with PBS and replenished with fresh media. Cells were cultured for next ten days with half-media replacement every other day, and the full media replacement on the 8th day. The culture media was collected on the 10th day after infection for the measurement of HIV-1 RT activity (Kalter, et al., J. Immunol. (1991) 146:3396-3404; Nowacek, et al., J. Neuroimmune Pharm. (2010) 5:592-601). The extent of infection was expressed as a percent of RT activity by infected MDM that were not treated. Cells were fixed in 2% PFA, and expression of HIV-1 p24 antigen was determined by immunocytochemistry (Nowacek, et al., J. Neuroimmune Pharm. (2010) 5:592-601).
MDM were plated in clear flat-bottom 96-well plates (0.08×10^6 cells/well). […] After 4 hours of viral challenge, cells were washed and given fresh media containing drug (0.1-1000 nM). Subsequently, cell supernatants were collected 10 days later and assayed for HIV-1 RT activity as described above.

HIV-1 = details: protein-adjusted; cited from earlier work
[1] = after oral administration; cited from earlier work
[2] = Plasma cleavage drug hydrolysis kinetics; assay type: in vitro ADME, mouse, rat, rabbit, monkey, dog, and human; details: for prodrug cleavage in plasma: plasma of all species tested
Experimental: The hydrolysis kinetics of MCAB, M2CAB and M3CAB and relative release of active drug were determined in plasma of different species (mouse, rat, rabbit, monkey, dog, and human). MCAB, M2CAB or M3CAB (1 μM) were incubated in 100 μL plasma at 37° C. At different time points, 1 mL acidified methanol (0.1% formic acid and 25 mM ammonium formate to avoid further prodrug hydrolysis) was added to each sample and vortexed for 3 minutes to stop the reaction. For 0-minute time-point, a 100 μL ice cold plasma was spiked with prodrug stock solution, and 1 ml of ice cold acidic methanol was added immediately. Following the addition of methanol, samples were centrifuged at 15,000 g for 10 minutes, and collected supernatant was analyzed for drug content by UPLC-MS/MS (Waters Xevo TQ-XS).

[3] = PK and biodistribution in NSG mice; assay type: in vivo
Experimental: Drug levels from plasma and tissues were assayed by UPLC-MS/MS. Drug levels in plasma were monitored weekly.
Following injection, blood samples were collected into heparinized tubes at day 1 post-administration and then weekly up to day 364 by cheek puncture (submandibular vein, MEDIpoint, Inc., Mineola, NY). Collected blood (25 μL) was immediately diluted into 1 mL ACN and stored at −80° C. until drug measurements. Remaining blood samples were centrifuged at 2,000 g for 8 minutes for plasma collection. Plasma was collected and stored at −80° C. for analysis of drug contents. At day 14, 28, 42 and 364 following administration, animals were humanly euthanized by isoflourane inhalation, followed by cervical dislocation. Spleen, lymph nodes, liver, lung, gut, kidney, brain, vaginal tissue, and rectal tissue were collected for quantitation of CAB and prodrug concentrations. CAB, MCAB, M2CAB and M3CAB were quantitated in mouse plasma, blood and tissues by UPLC-MS/MS using a Waters ACQUITY H-class UPLC (Waters, Milford, MA, USA) connected to a Xevo TQ-S micro mass spectrometer. All solvents for sample processing and UPLC-MS/MS analysis were LCMS-grade (Fisher). For plasma and blood samples, 25 μL of sample was added into 1 mL acetonitrile (ACN) spiked with 10 μL internal standard (IS). d3-Dolutegravir (d3-DTG), myristoylated dolutegravir (MDTG), and stearoylated darunavir (SDRV), at a final concentration of 200, 20 and 20 ng/mL, respectively, were used as ISs for CAB, MCAB and M2CAB/M3CAB analyses, respectively. Samples were vortexed and centrifuged at 17,000×g for 10 minutes at 4° C. […] For tissue drug quantitation, 3-200 mg of sample was homogenized in 4-29 volumes of 0.1% v/v formic acid and 2.5 mM ammonium formate containing 90% methanol. […] For CAB quantitation, chromatographic separation of 10 μL CAB sample was performed on a Waters ACQUITY UPLC BEH Shield RP18 column (1.7 μm, 2.1 mm×100 mm) using a 10-minute gradient of mobile phase A (7.5 mM ammonium formate in water, adjusted to pH 3 using formic acid) and mobile phase B (100% ACN) at a flow rate of 0.25 mL/minute. […]

[4] = Chemical stability at acidic, neutral and basic pH; assay type: physicochemical; details: for prodrug hydrolysis: 24 hours
Experimental: The stability of MCAB, M2CAB and M3CAB in acidic (pH 1), basic (pH 11) and neutral (pH 7) conditions at room temperature and elevated temperature (37° C.) was determined. The stock solution of each prodrug was prepared in DMSO at a concentration of 1 mg/mL. For acidic, basic and neutral assays, 100 μL of stock solution of each prodrug was added to 1900 μL of 0.1 M HCl, 0.1 M NaOH or optima-grade water (pH adjusted to 7), respectively. Samples were then incubated at room temperature and […] under shaking conditions (Innova® 42 shaker incubator, 150 rpm). Samples were withdrawn at 0, 2, 4, 8 and 24 hours and stored at −80° C. Later, samples were analyzed for drug content by UPLC-UV/Vis.

[5] = Human immunodeficiency virus 1, 240 h

C[C@H]1CO[C@@H]2Cn3cc(C(=O)NCc4ccc(F)cc4F)c(=O)c(O)c3C(=O)N12 [CAB, cabotegravir] gave a solubility (1-octanol solubility) of 90 ± 2 µg/mL (≈ 222 µM), a solubility at 24 h (Aqueous solubility) of 12.1 ± 0.41 µg/mL (≈ 29.9 µM) and an EC50 (HIV-1ADA; [5]) of 28.4 nM. For the same molecule, the “4×PA-IC90” value (HIV-1) was 0.66 µg/mL and 0.664 µg/mL, the PA-IC90 (HIV-1) was 0.166 µg/mL and the systemic half-life [1] was “approximately 40 hours”.

Molecule CCCCCCCCCCCCCCCCCC(=O)Oc1c2n(cc(C(=O)NCc3ccc(F)cc3F)c1=O)C[C@H]1OC[C@H](C)N1C2=O [M2CAB] has a solubility (1-octanol solubility) of 2640 ± 20 µg/mL (≈ 3930 µM), a solubility at 24 h (Aqueous solubility) of 1.91 ± 0.23 µg/mL (≈ 2.84 µM) and an EC50 (HIV-1ADA; [5]) of 44.7 nM. For the same molecule, the “prodrug cleavage in plasma” value ([2]; by 2 hours, average) was 75%, the “prodrug cleavage in plasma” value ([2]; by 6 hours, average) was 80% and the concentration at 1 day ([3]; female, NSG, mouse, whole blood, intramuscular, 45 mg/kg CAB-equivalents, day 1 post-injection, read-out: prodrug concentration in blood) was 31.3 ng/mL. The prodrug hydrolysis ([4]; 37° C., acidic (pH 1)) was over 95%, the prodrug hydrolysis ([4]; 37° C., neutral (pH 7)) was 28% and the “time to complete hydrolysis” value ([4]; 37° C., basic (pH 11)) was at most 2 h. For the same molecule, the prodrug hydrolysis ([4]; room temperature, acidic (pH 1)) was 19%, the prodrug hydrolysis ([4]; room temperature, basic (pH 11)) was “completely hydrolyzed” and the prodrug hydrolysis ([4]; room temperature, neutral (pH 7)) was 24%.

With CCCCCCCCCCCCCCCCCCCCCC(=O)Oc1c2n(cc(C(=O)NCc3ccc(F)cc3F)c1=O)CC1OCC(C)N1C2=O (centres unmarked) [M3CAB] the aqueous solubility (Aqueous solubility) was 1.51 ± 0.7 µg/mL (≈ 2.07 µM), the EC50 (HIV-1ADA) was 51.1 nM and the “prodrug remaining in plasma” value ([2]; after 24 hours of incubation) was “around 50%”.

In the case of CCCCCCCCCCCCCC(=O)Oc1c2n(cc(C(=O)NCc3ccc(F)cc3F)c1=O)CC1OCC(C)N1C2=O (centres unmarked) [MCAB], the aqueous solubility (Aqueous solubility) is reported as 2.83 ± 1.37 µg/mL (≈ 4.6 µM), the EC50 (HIV-1ADA) is reported as 34.2 nM and the “prodrug cleavage in plasma” value ([2]; within 30 minutes, 37° C., 1 μM) is reported as “more than 85%”. For the same molecule, the “prodrug concentration in blood” value ([3]; day 1 post-injection) was 22 ng/mL and the “prodrug levels in tissues” value ([3]; day 364) was “undetectable”.
